Measurements published in patent publication US11472766B2, “Lipid nanoparticle composition” (Suzhou Abogen Biosciences Co., Ltd., priority 2020, dated 2022).

Columns and labels:
[1] = Lipid nanoparticle size by dynamic light scattering (Malvern Zetasizer Nano ZS); assay type: physicochemical; conditions: LNP: cationic lipid/DSPC/cholesterol/PEG-lipid 50:10:38.5:1.5, hEPO mRNA
Experimental: (§1) Briefly, a cationic lipid provided herein, DSPC, cholesterol, and PEG-lipid were solubilized in ethanol at a molar ratio of 50:10:38.5:1.5, and mRNA were diluted in 10 to 50 mM citrate buffer, pH=4. The LNPs were prepared at a total lipid to mRNA weight ratio of approximately 10:1 to 30:1 by mixing the ethanolic lipid solution with the aqueous mRNA solution at a volume ratio of 1:3 using a microfluidic apparatus, total flow rate ranging from 9-30 mL/min. Ethanol were thereby removed and replaced by DPBS using dialysis. Finally, the lipid nanoparticles were filtered through a 0.2 μm sterile filter.
(§2) Lipid nanoparticle size were determined by dynamic light scattering using a Malvern Zetasizer Nano ZS (Malvern UK) using a 173° backscatter detection mode. The encapsulation efficiency of lipid nanoparticles were determined using a Quant-it Ribogreen RNA quantification assay kit (Thermo Fisher Scientific, UK) according to the manufacturer's instructions.

[2] = Encapsulation efficiency of lipid nanoparticles (Quant-it Ribogreen RNA quantification assay); assay type: physicochemical; conditions: LNP encapsulating hEPO mRNA
Experimental: as §1, §2

[3] = system: human erythropoietin (hEPO) mRNA; assay: Animal study: hEPO expression after tail vein injection of LNPs encapsulating hEPO mRNA (serum ELISA); assay type: in vivo; conditions: hEPO level, female ICR mice, 0.5 mg/kg, 6 hours post administration; for Expression at 6 h (μg/ml): class symbols, Table 3
Experimental: Lipid nanoparticles comprising compounds 1-10 encapsulating human erythropoietin (hEPO) mRNA were systemically administered to 6-8 week old female ICR mice (Xipuer-Bikai, Shanghai) at 0.5 mg/kg dose by tail vein injection and mice blood were sampled at specific time points (e.g., 6 hours) post administration. In addition to the aforementioned tested groups, lipid nanoparticles comprising dilinoleylmethyl-4-dimethylaminobutyrate (DLin-MC3-DMA, usually abbreviated to MC3) encapsulating hEPO mRNA were similarly administered at the same dose to age and gender comparative groups of mice as a positive control.
Mice were euthanized by CO2 overdoses after the last sampling time point. Serum were separated from total blood by centrifugation at 5000 g for 10 minutes at 4° C., snap-frozen and stored at −80° C. for analysis. ELSA assay were carried out using a commercial kit (DEP00, R&D systems) according to manufacturer's instructions.
Characteristics of tested lipid nanoparticles, including hEPO expression levels (μg/ml) measured from the tested group are listed the tables below and plotted in FIG. 2.

Row | SMILES | polydispersity ([1]; Table 3) | size nm ([1]; Table 3) | Encapsulation Efficiency ([2]; Table 3) | Expression at 6 h (μg/ml) [3] | polydispersity ([1]; Table 2) | size nm ([1]; Table 2) | Encapsulation Efficiency ([2]; Table 2) | Expression at 6 h ([3]; Table 2)
1 | CCCCCCCCC(CCCCCC)COC(=O)CCCCCN(CCCCCC(=O)OCC(CCCCCC)CCCCCCCC)CCN(CCCCCCO)C1CCC1 (centres unmarked) [Compound 30] | 0.071 | 80.46 nm | 95.9% | B (≥1 and <2) | – | – | – | –
2 | CCCCCCCCNC(=O)CCCCCN(CCCCCC(=O)NCCCCCCCC)CCN(CCO)C1CCCCC1 [Compound 123] | 0.285 | 264.9 nm | 30.1% | A (≥2) | – | – | – | –
3 | CCCCCCCCC(CCCCCC)CNC(=O)NCCCCN(CCCCNC(=O)NCC(CCCCCC)CCCCCCCC)CCN(CCO)C1CCC1 (centres unmarked) [Compound 121] | 0.134 | 71.02 nm | 94.5% | B (≥1 and <2) | – | – | – | –
4 | CCCCCCCCC(CCCCCC)CC(=O)NCCCCCN(CCCCCOC(=O)CC(CCCCCC)CCCCCCCC)CCN(CCO)C1CCCC1 (centres unmarked) [Compound 130] | 0.097 | 79.92 nm | 92.50% | A (≥2) | – | – | – | –
5 | CCCCCCCCC(CCCCCC)COC(=O)CCCCCN(CCCCCC(=O)OCC(CCCCCC)CCCCCCCC)CCN1CC(O)C1 (centres unmarked) [Compound 97] | 0.204 | 66.69 nm | 96.8% | D (<0.1) | – | – | – | –
6 | CCCCCCCCC(CCCCCC)COC(=O)CCCCCN(CCCCCC(=O)OCC(CCCCCC)CCCCCCCC)C1CCN(CCO)CC1 (centres unmarked) [Compound 98] | 0.105 | 86.23 nm | 97.6% | D (<0.1) | – | – | – | –
7 | CCCCCCCCC(CCCCCC)C(CCC)OC(=O)CCCCCN(CCCCCC(=O)OC(CCC)C(CCCCCC)CCCCCCCC)CCN(CCO)C1CCC1 (centres unmarked) [Compound 40] | 0.081 | 66.39 nm | 99.2% | C (≥0.1 and <1) | – | – | – | –
8 | CCCCC/C=C\C/C=C\CCCCCCCCC(CCCCCCCC/C=C\C/C=C\CCCCC)OC(=O)CCCN(C)C [MC3, dilinoleylmethyl-4-dimethylaminobutyrate, reference compound] | – | – | – | – | 0.042 | 79.8 nm | 98.5% | 2.35 µg/mL
9 | CCCCCCCCC(CCCCCC)COC(=O)CCCCCN(CCCCCC(=O)OCC(CCCCCC)CCCCCCCC)CCN(CCO)C1CCC(F)(F)CC1 (centres unmarked) [Compound 23] | 0.14 | 60.64 nm | 93.9% | B (≥1 and <2) | – | – | – | –
10 | CCCCCCCCC(CCCCCCCC)COC(=O)CCCCCN(CCCCCC(=O)OCC(CCCCCCCC)CCCCCCCC)CCN(CCO)C1CCC(F)(F)CC1 [Compound 78] | 0.091 | 44.47 nm | 92.4% | C (≥0.1 and <1) | – | – | – | –
11 | CCCCCCCCCCC(CCCCCCCCCC)COC(=O)CCCCCN(CCCCCC(=O)OCC(CCCCCCCCCC)CCCCCCCCCC)CCN(CCO)C1CCC1 [Compound 52] | 0.054 | 69.18 nm | 95.70% | A (≥2) | – | – | – | –
12 | CCCCCCCCC(CCCCCC)CNC(=O)CCCCCN(CCCCCC(=O)NCC(CCCCCC)CCCCCCCC)CCN(CCO)C1CCCCC1 (centres unmarked) [Compound 129] | 0.131 | 63.13 nm | 91.20% | A (≥2) | – | – | – | –
13 | CCCCCCCCC(CCCCCC)COC(=O)CCCCCN(CCCCCC(=O)OCC(CCCCCC)CCCCCCCC)CCN1CCC(O)C1 (centres unmarked) [Compound 95] | 0.285 | 82.43 nm | 97.2% | D (<0.1) | – | – | – | –
14 | CCCCCCCCC(CCCCCC)C(=O)OCCCCCCN(CCCCCCOC(=O)C(CCCCCC)CCCCCCCC)CCN(CCO)C1CCC1 (centres unmarked) [Compound 45] | 0.032 | 71.47 nm | 96.6% | A (≥2) | – | – | – | –
